IC50 data for eleven molecules are collected here from patent US10729680B2, “5-substituted 2-(morpholin-4-yl)-1,7-naphthyridines” (BAYER PHARMA AKTIENGESELLSCHAFT, priority 2016, dated 2020).

For assay [1], the target named is full-length human ATR protein (ATR/ATRIP) (Homo sapiens (Human), UniProt Q13535). Kind of assay: Binding Assay ATR (TR-FRET, tracer A displacement). The note with it: displacement of fluorescent tracer A from GST-ATR/ATRIP. From the text: To determine of binding activity of the test compounds, full-length human ATR protein was expressed and purified together with ATRIP as described above. Furthermore, a fluorescently labelled compound (tracer A as described above) was used as a tracer molecule. Detection of the binding event of the tracer was achieved by time-resolved fluorescence energy transfer (TR-FRET). We used an anti-GST-Terbium antibody (CisBio) that binds to the GST-tag at the N-terminus of ATR-kinase. Excitation of Terbium with 337 nm light results in emission of fluorescent light with 545 nm. In case a tetrameric complex has formed (antiGST-Tb+GST-ATR+Strp2-ATRIP+tracer), part of the energy will be transferred from the Terbium to the fluorophore that itself emits light of 570 nm. Displacement of the fluorescent tracer by a test compound leads to a reduction of the TR-FRET-signal.
Chain of full-length human ATR protein (ATR/ATRIP) (Q13535 other isoform, or with tags, fused parts or gaps): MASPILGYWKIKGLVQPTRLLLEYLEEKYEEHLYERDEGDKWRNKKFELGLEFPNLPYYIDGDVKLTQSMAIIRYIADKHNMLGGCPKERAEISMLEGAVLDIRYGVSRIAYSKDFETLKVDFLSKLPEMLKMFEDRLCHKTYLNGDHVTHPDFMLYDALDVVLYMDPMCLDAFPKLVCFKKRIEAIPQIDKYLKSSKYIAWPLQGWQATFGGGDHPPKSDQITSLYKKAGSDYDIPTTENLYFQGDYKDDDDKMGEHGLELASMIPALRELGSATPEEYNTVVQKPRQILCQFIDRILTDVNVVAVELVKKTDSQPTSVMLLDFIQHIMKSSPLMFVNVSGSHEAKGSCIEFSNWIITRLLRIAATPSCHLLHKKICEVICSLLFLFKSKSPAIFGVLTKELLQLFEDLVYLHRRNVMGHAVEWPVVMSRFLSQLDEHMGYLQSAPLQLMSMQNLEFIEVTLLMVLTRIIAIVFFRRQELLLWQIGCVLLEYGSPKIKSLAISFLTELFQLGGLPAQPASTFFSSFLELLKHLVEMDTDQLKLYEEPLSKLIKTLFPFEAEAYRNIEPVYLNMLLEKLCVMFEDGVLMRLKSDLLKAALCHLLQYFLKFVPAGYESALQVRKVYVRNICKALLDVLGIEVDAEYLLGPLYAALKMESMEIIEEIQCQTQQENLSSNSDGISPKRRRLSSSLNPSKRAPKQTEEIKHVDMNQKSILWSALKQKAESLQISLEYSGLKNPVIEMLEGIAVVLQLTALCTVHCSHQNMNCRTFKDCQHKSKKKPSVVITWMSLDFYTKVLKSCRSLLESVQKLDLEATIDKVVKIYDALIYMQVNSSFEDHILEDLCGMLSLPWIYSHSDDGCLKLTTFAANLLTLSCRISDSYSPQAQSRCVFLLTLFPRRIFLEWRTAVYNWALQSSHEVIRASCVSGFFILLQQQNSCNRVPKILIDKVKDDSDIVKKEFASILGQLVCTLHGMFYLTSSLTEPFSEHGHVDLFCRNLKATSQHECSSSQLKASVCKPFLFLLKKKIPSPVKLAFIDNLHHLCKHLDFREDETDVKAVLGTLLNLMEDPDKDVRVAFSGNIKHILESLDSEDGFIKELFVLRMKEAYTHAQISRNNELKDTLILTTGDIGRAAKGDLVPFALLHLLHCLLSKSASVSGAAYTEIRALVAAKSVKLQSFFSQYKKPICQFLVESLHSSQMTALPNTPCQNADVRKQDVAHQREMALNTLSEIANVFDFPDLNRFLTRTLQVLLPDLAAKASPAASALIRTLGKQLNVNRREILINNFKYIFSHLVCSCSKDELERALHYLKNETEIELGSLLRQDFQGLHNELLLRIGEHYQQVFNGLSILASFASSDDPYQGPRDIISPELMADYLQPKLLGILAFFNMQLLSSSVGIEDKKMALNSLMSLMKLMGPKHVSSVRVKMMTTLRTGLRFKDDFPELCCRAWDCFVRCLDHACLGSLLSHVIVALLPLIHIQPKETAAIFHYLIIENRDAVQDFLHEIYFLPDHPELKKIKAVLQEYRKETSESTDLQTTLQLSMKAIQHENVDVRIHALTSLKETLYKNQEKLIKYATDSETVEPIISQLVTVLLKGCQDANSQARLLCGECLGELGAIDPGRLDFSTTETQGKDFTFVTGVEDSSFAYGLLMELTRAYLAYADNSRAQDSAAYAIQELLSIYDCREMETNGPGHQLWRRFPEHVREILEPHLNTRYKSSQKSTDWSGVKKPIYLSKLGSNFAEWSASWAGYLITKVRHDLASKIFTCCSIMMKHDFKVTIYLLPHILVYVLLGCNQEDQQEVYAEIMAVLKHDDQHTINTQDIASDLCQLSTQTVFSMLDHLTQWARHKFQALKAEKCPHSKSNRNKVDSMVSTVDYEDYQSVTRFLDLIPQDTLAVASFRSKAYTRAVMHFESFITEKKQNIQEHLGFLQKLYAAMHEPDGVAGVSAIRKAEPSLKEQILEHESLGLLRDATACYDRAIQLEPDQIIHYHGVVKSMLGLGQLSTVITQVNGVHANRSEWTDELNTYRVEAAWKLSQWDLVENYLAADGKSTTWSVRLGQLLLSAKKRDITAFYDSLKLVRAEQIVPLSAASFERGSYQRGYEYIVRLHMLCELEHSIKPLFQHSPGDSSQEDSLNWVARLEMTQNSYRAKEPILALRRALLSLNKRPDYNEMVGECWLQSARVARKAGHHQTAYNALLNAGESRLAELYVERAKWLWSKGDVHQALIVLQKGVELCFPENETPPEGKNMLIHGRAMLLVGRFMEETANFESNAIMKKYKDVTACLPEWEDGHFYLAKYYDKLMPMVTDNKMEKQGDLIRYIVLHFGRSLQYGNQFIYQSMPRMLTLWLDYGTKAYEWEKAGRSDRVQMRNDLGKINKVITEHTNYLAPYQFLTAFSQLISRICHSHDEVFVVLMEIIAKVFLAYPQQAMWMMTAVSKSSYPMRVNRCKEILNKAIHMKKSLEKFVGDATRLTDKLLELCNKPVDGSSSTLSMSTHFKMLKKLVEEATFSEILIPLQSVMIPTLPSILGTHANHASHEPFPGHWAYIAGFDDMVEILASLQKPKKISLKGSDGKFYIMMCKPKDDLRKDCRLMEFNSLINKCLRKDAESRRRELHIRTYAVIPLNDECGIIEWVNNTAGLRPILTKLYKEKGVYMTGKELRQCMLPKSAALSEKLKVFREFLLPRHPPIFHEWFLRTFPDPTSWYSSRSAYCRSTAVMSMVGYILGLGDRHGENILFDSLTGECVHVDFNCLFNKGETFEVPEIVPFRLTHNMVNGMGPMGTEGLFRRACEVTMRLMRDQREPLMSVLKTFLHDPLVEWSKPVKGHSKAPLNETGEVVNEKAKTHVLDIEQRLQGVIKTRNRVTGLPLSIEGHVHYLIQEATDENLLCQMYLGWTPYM
Chain of full-length human ATR protein (ATR/ATRIP) (Q8WXE1 other isoform, or with tags, fused parts or gaps partner): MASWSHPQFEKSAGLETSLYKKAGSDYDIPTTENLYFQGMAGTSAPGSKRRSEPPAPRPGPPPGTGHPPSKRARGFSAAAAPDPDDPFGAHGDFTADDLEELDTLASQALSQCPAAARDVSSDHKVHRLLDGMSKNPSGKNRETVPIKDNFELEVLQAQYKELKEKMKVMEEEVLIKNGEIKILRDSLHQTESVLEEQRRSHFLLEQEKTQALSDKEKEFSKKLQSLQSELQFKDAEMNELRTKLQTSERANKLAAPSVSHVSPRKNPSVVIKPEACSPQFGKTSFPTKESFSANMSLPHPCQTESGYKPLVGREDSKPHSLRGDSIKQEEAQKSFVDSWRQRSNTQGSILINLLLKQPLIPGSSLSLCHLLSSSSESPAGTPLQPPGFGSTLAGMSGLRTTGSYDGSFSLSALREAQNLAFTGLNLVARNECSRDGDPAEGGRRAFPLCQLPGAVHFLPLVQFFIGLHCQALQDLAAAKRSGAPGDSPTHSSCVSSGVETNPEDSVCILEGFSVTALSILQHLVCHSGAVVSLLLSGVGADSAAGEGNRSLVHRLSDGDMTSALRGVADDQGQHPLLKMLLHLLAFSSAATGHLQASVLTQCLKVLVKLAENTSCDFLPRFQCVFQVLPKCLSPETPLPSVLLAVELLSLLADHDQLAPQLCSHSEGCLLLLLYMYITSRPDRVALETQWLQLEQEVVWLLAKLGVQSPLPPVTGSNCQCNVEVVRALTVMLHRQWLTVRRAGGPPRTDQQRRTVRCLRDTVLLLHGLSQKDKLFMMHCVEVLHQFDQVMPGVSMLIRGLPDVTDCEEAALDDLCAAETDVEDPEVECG
For the assay 50 nl of a 100-fold concentrated solution of the test compound in DMSO was pipetted into a black low volume 384 well microtiter plate (MTP, Greiner Bio-One, Frickenhausen, Germany). To prepare the ATR-working solution, ATR/ATRIP stock solution was diluted in assay buffer [50 mM HEPES (pH 7.0), 10 mM MgCl2, 1 mM DTT, 0.01% (w/v) Igepal, 0.01% (w/v) BSA] to 4.2 nM protein concentration (concentration may vary from lot to lot of protein preparation). AntiGST-Tb antibody was diluted to 4.2 nM. The ATR-working solution was incubated for 30 min at 22° C. prior to dispensing to pre-form the complex of antiGST-Tb+GST-ATR+ATRIP. Then, 3 μl of the ATR-working solution were added to the test compound and the mixture was incubated for 10 min at 22° C. to allow pre-binding of the test compounds to ATR/ATRIP. Then, 2 μl of a 100 nM solution of tracer A in assay buffer were added to the ATR-working solution. The resulting mixture was incubated for 30 min at 22° C. The measurement of the TR-FRET signal was performed in a standard HTRF-compatible MTP reader instrument (e.g. BMG Pherastar) by recording the fluorescence emissions at 545 nm and 570 nm after excitation at 337-350 nm. The ratio between emission at 570 nm divided by emission at 545 nm was calculated to give the well ratio. The experimental data (well ratios) were normalised by the following way: positive control contained ATR-working solution plus tracer A solution (=0% inhibition), the negative control contained all components except GST-ATR/ATRIP (=100% inhibition). Usually the compounds were tested on the same MTP in 11 different concentrations in the range of 20 μM to 0.1 nM (20 μM, 5.9 μM, 1.7 μM, 0.51 μM, 0.15 μM, 44 nM, 13 nM, 3.8 nM, 1.1 nM, 0.33 nM and 0.1 nM). The dilution series were prepared separately before the assay on the level of the 100 fold concentrated solutions in DMSO by serial 1:3.4 dilutions in duplicate values for each concentration. IC50 values were calculated by a 4 parameter fit using standard software (GraphPad prism or equivalent).
(In general: TR-FRET usually uses a lanthanide donor and a delayed reading to cut background.)

The subject of a further assay is HeLa cells. Kind of assay: Proliferation assay (HeLa, crystal violet). The format is cell-based. The note with it: Homo sapiens, 96 h, 4 days incubation, crystal violet staining, read-out: Inhibition of HeLa cell proliferation. The method, then:
Human tumour cells were originally obtained from the American Type Culture Collection (ATCC), the Deutsche Sammlung von Mikroorganismen und Zellkulturen (DSMZ, German Collection of Microorganisms and Cell Cultures) or Epo GmbH, Berlin.
Adherently growing cells (HeLa, HeLa-MaTu-ADR, HT-144, Lovo, HT-29, NCI-H460, DU145, Caco2, B16F10) were plated out in a density of 1500-4000 cells/measurement point, depending on the rate of growth of the cell line, in a 96-well multititre plate in 200 μl of growth medium (DMEM/HAMS F12, 2 mM L-glutamine, 10% foetal calf serum). After 24 hours, the cells of one plate (zero plate) were dyed with crystal violet (see below), whereas the medium of the other plates was replaced with fresh culture medium (200 μl) to which the test substances were added in various concentrations (0 μM, and also in the range of 0.001-10 μM; the final concentration of the solvent dimethyl sulphoxide was 0.1 or 0.5%). The cells were incubated for 4 days in the presence of the test substances. Cell proliferation was determined by staining the cells with crystal violet: the cells were fixed at room temperature for 15 min by adding 20 μl/measurement point of an 11% strength glutaraldehyde solution. After washing the fixed cells three times with water, the plates were dried at room temperature. The cells were stained by adding 100 μl/measurement point of a 0.1% strength crystal violet solution (pH adjusted to pH 3 by adding acetic acid). After washing the cells three times with water, the plates were dried at room temperature. The dye was dissolved by adding 100 μl/measurement point of a 10% strength acetic acid solution. Absorbance was determined photometrically at a wavelength of 595 nm. The percentage change in cell growth was calculated by normalizing the measured values to the absorbance values of the zero plate (=0%) and the absorbance of the untreated (0 μM) cells (=100%). The IC50 values were determined by means of a four parameter fit.
Inhibition of proliferation of HeLa cells by compounds according to the present invention, determined as described above. All IC50 (inhibitory concentration at 50% of maximal effect) values are indicated in M, “n.t.” means that the compounds have not been tested in the respective assay.

Regarding `Cc1cnc(-c2ccn[nH]2)c2nc(N3CCOC[C@H]3C)cc(N3CCOCC3)c12` [Example 10, 5-methyl-2-[(3R)-3-methylmorpholin-4-yl]-4-(morpholin-4-yl)-8-(1H-pyrazol-5-yl)-1,7-naphthyridine], the IC50 in assay [1] turned out to be 0.00891 µM; in the assay with HeLa cells it was 0.109 µM.

With `Cc1ncc(-c2cc(N3CCOC[C@H]3C)nc3c(-c4ccn[nH]4)ncc(C)c23)s1` [Example 16, 5-methyl-2-[(3R)-3-methylmorpholin-4-yl]-4-(2-methyl-1,3-thiazol-5-yl)-8-(1H-pyrazol-5-yl)-1,7-naphthyridine], the IC50 in assay [1] was 0.0142 µM; in the assay on HeLa cells, 0.0339 µM.

Take `Cc1cnc(-c2ccn[nH]2)c2nc(N3CCOC[C@H]3C)cc(N3CCN(S(C)(=O)=O)CC3)c12` [Example 12, 5-methyl-2-[(3R)-3-methylmorpholin-4-yl]-4-[4-(methylsulfonyl)piperazin-1-yl]-8-(1H-pyrazol-5-yl)-1,7-naphthyridine]: the IC50 came out at 0.00549 µM in assay [1] and 0.44 µM with HeLa cells.

For `Cc1cnc(-c2ccn[nH]2)c2nc(N3CCOC[C@H]3C)cc(-c3cncn3C)c12` [Example 15, 5-methyl-4-(1-methyl-1H-imidazol-5-yl)-2-[(3R)-3-methylmorpholin-4-yl]-8-(1H-pyrazol-5-yl)-1,7-naphthyridine], the values for the IC50 (in assay [1]; in the assay on HeLa cells) were 0.00586 µM and 0.145 µM, respectively.

As for `Cc1cnc(-c2ccn[nH]2)c2nc(N3CCOC[C@H]3C)cc(N3CCC(CO)CC3)c12` [Example 11, (1-{5-methyl-2-[(3R)-3-methylmorpholin-4-yl]-8-(1H-pyrazol-5-yl)-1,7-naphthyridin-4-yl}piperidin-4-yl)methanol], the IC50 in assay [1] came out at 0.0038 µM; with HeLa cells, 0.0332 µM.

With `Cc1cnc(-c2ccn[nH]2)c2nc(N3CCOC[C@H]3C)cc(-c3ccc(N4CCNCC4)cc3F)c12` [Example 6, 4-[2-fluoro-4-(piperazin-1-yl)phenyl]-5-methyl-2-[(3R)-3-methylmorpholin-4-yl]-8-(1H-pyrazol-5-yl)-1,7-naphthyridine], the results for the IC50 (in assay [1]; with HeLa cells) were 0.0142 µM and 0.296 µM, respectively.

For `Cc1cnc(-c2ccn[nH]2)c2nc(N3CCOC[C@H]3C)cc(-c3cccnc3F)c12` [Example 3, 4-(2-fluoropyridin-3-yl)-5-methyl-2-[(3R)-3-methylmorpholin-4-yl]-8-(1H-pyrazol-5-yl)-1,7-naphthyridine], the IC50 in assay [1] stood at 0.00813 µM; in the assay on HeLa cells, 0.154 µM.

`COC(=O)c1cc(N2CCOC[C@H]2C)nc2c(-c3ccn[nH]3)ncc(C)c12` [Example 14, methyl 5-methyl-2-[(3R)-3-methylmorpholin-4-yl]-8-(1H-pyrazol-5-yl)-1,7-naphthyridine-4-carboxylate]: the IC50 in assay [1] was 0.053 µM; in the assay on HeLa cells, 0.44 µM.

For `Cc1cnc(-c2ccn[nH]2)c2nc(N3CCOC[C@H]3C)cc(N=S3(=O)CCCC3)c12` [Example 8, N-5-methyl-2-[(3R)-3-methylmorpholin-4-yl]-8-(1H-pyrazol-5-yl)-1,7-naphthyridin-4-yltetrahydro-1H-1λ^4-thiophen-1-imine 1-oxide], the IC50 came out at 0.0355 µM in assay [1] and 0.473 µM with HeLa cells.

Regarding `Cc1cnc(-c2ccn[nH]2)c2nc(N3CCOC[C@H]3C)cc(-c3cccc(F)c3F)c12` [Example 7, 4-(2,3-difluorophenyl)-5-methyl-2-[(3R)-3-methylmorpholin-4-yl]-8-(1H-pyrazol-5-yl)-1,7-naphthyridine], the IC50 in assay [1] amounted to 0.00827 µM; in the assay with HeLa cells it was 0.499 µM.

As for `Cc1cnc(-c2ccn[nH]2)c2nc(N3CCOC[C@H]3C)cc(-c3ccnn3C)c12` [Example 2, 5-methyl-2-[(3R)-3-methylmorpholin-4-yl]-4-(1-methyl-1H-pyrazol-5-yl)-8-(1H-pyrazol-5-yl)-1,7-naphthyridine], the IC50 stood at 0.00602 µM in assay [1] and 0.0634 µM in the assay with HeLa cells.
